Data published in US7468375B2 (Pfizer Inc., priority 2004, dated 2008).
pEC50, pIC50: −log10 of the molar value. Like-named read-outs stand apart in the source and are kept apart here.

How the values were obtained:
[1] = biological target: T1, Full-length wild type HIV-1 integrase (SF1) (Human immunodeficiency virus type 1 group M subtype B, UniProt P04585); assay: Integrase strand-transfer scintillation proximity assay; format: biochemical; settings: 50 min at 37° C., 246 nM integrase, 50 nM host DNA
T1 construct: made in house; host or cells: E. coli BL21 (DE3)
Excerpt: Integrase Strand-Transfer Scintillation Proximity Assay Oligonucleotides
Oligonucleotide #1-5′-(biotin)[…]-3′ (SEQ ID NO: 1) and oligonucleotide #2-5′-[…]-3′ (SEQ ID NO: 2), were synthesized by TriLink BioTechnologies, Inc. (San Diego, Calif.). The annealed product represents preprocessed viral ds-DNA derived from the LTR U5 sequence of the viral genome. A ds-DNA control to test for non-specific interactions was made using a 3′ di-deoxy derivative of oligonucleotide #1 annealed to oligonucleotide #2. The CA overhang at the 5′ end of the non-biotinylated strand of the ds-DNA was created artificially by using a complimentary DNA oligonucleotide shortened by 2 base pairs. This configuration eliminates the requisite 3′ processing step of the integrase enzyme prior to the strand-transfer mechanism. Host ds-DNA was prepared as an unlabeled and [^3H]-thymidine labeled product from annealed oligonucleotide #3-5-[…]-3′ (SEQ ID NO: 3), and oligonucleotide #4-5′-[…]-3′ (SEQ ID NO: 4), both synthesized by TriLink BioTechnologies, Inc. (San Diego, Calif.). The annealed product had overhanging 3′ ends of poly(dA). Host DNA was custom radiolabeled by PerkinElmer Life Sciences Inc. (Boston, Mass.) using an enzymatic method with a 12/1 ratio of [methyl-3H]dTTP/cold ds-DNA to yield 5′-blunt end ds-DNA with a specific activity of >900 Ci/mmol. The radiolabeled product was purified using a NENSORB cartridge and stored in stabilized aqueous solution (PerkinElmer). The final radiolabeled product had six [^3H]-thymidine nucleotides at both 5′ ends of the host ds-DNA. Reagents: Streptavidin-coated polyvinyltoluene (PVT) SPA beads were purchased from Amersham Biosciences (Piscataway, N.J.). Cesium chloride was purchased from Shelton Scientific, Inc. (Shelton, Conn.). White, polystyrene, flat-bottom, non-binding surface, 96-well plates were purchased from Corning. All other buffer components were purchased from Sigma (St. Louis, Mo.) unless otherwise indicated.
Enzyme Construction: Full-length wild type HIV-1 integrase (SF1) sequence (amino acids 1-288) was constructed in a pET24a vector (Novagen, Madison, Wis.). The construct was confirmed through DNA sequencing. Enzyme Purification: Full length wild-type HIV Integrase was expressed in E. coli BL21 (DE3) cells and induced with 1 mM isopropyl-1 thio-β-D-galactopyranoside (IPTG) when cells reached an optical density between 0.8-1.0 at 600 nm. Cells were lysed by microfluidation in 50 mM HEPES pH 7.0, 75 mM NaCl, 5 mM DTT, 1 mM 4-(2-Aminoethyl)benzenesulfonylfluoride HCl (AEBSF). Lysate was then centrifuged 20 minutes at 11 k rpm in GSA rotor in Sorvall RC-5B at 4° C. Supernant was discarded and pellet resuspended in 50 mM HEPES pH 7.0, 750 mM NaCl, 5 mM DTT, 1 mM AEBSF and homogenized in a 40 mL Dounce homogenizer for 20 minutes on ice. Homogenate was then centrifuged 20 minutes at 11 k rpm in SS34 rotor in Sorvall RC-5B at 4° C. Supernant was discarded and pellet resuspended in 50 mM HEPES pH 7.0, 750 mM NaCl, 25 mM CHAPS, 5 mM DTT, 1 mM AEBSF. Preparation was then centrifuged 20 minutes at 11 k rpm in SS34 rotor in Sorvall RC-5B at 4° C. Supernant was then diluted 1:1 with 50 mM HEPES pH 7.0, 25 mM CHAPS, 1 mM DTT, 1 mM AEBSF and loaded onto a Q-Sepharose column pre-equilibrated with 50 mM HEPES, pH 7.0, 375 mM NaCl, 25 mM CHAPS, 1 mM DTT, 1 mM AEBSF. The flow through peak was collected and NaCl diluted to 0.1 M with 50 mM HEPES pH 7.0, 25 mM CHAPS, 1 mM DTT, 0.5 mM AEBSF and loaded onto a SP-Sepharose column pre-equilibrated with 50 mM HEPES pH 7.0, 100 mM NaCl, 25 mM CHAPS, 1 mM DTT, 0.5 mM AEBSF. After washing the column with the equilibration buffer, a 100 to 400 mM NaCl gradient was run. The eluted integrase was concentrated and run on a S-300 gel diffusion column using 50 mM HEPES pH 7.0, 500 mM NaCl, 25 mM CHAPS, 1 mM DTT, 0.5 mM AEBSF. The peak from this column was concentrated to 0.76 mg/mL and stored at −70° C. and later used for strand transfer assays. […]

[2] = test system: RF strain of HIV-1 in CEM-SS cells; assay: HIV-1 cell protection assay (XTT dye reduction); format: cell-based; settings: Human immunodeficiency virus 1, CEM-SS, 144 h
Procedure: HIV-1 Cell Protection Assay
The antiviral activities of potential modulator compounds (test compounds) were determined in HIV-1 cell protection assays using the RF strain of HIV-1, CEM-SS cells, and the XTT dye reduction method (Weislow, O. S. et al., J. Natl. Cancer Inst. 81: 577-586 (1989)). Subject cells were infected with HIV-1 RF virus at an moi of 0.025 to 0.819 or mock infected with medium only and added at 2×10^4 cells per well into 96 well plates containing half-log dilutions of test compounds. Six days later, 50 μl of XTT solution (1 mg/ml XTT tetrazolium and […] phenazine methosulfate) were added to the wells and the plates were reincubated for four hours. Viability, as determined by the amount of XTT formazan produced, was quantified spectrophotometrically by absorbance at 450 nm. Data from CPE assays were expressed as the percent of formazan produced in compound-treated cells compared to formazan produced in wells of uninfected, compound-free cells. […] The therapeutic index was calculated by dividing the cytotoxicity (CC50) by the antiviral activity (EC50).

[3] = HIV-1 RF, CEM-SS cells, XTT dye reduction, six days, read-out: EC50
[4] = strand transfer, read-out: IC50

## CN1CCN(Cc2cn(Cc3ccc(F)cc3F)c3cnc(C(=O)N(C)O)cc23)CC1 [Example 13]
[1]; IC50, strand transfer
  pIC50: 6.16
[2]; [3]
  pEC50: 6.66

## CN1CCN(Cc2cn(Cc3ccc(F)cc3)c3cnc(C(=O)N(C)O)cc23)CC1 [Example 14, 1-(4-Fluorobenzyl)-AN-hydroxy-N-methyl-3-[(4-methylpiperazin-1-yl)methyl]-1H-pyrrolo[2,3-c]pyridine-5-carboxamide]
[1]; IC50, strand transfer
  pIC50: 6.27
[2]; [3]
  pEC50: 6.85

## O=C1CN(Cc2cn(Cc3ccc(F)cc3)c3cnc(C(=O)NO)cc23)CCN1 [Example 15, 1-(4-Fluorobenzyl)-N-hydroxy-3-[(3-oxopiperazin-1-yl)methyl]-1 pyrrolo[2,3-c]pyridine-5-carboxamide]
[1]; [4]
  pIC50: 7.39
[2]; [3]
  pEC50: 7.96

## COCc1c(C(=O)NO)ncc2c1ccn2Cc1ccc(F)cc1F [Example 19, 1-(2,4-Difluorobenzyl)-N-hydroxy-4-(methoxymethyl)-1-H-pyrrolo[2,3-c]pyridine-5-carboxamide]
[1]; [4]
  pIC50: 6.66
[2]; [3]
  pEC50: 7.32

## COCc1c(C(=O)NOC)ncc2c1ccn2Cc1ccc(F)cc1F [Example 20]
[1]; IC50, strand transfer
  pIC50: 5.81
[2]; [3]
  pEC50: 7.09

## O=C(NO)c1cc2ncn(Cc3ccc(F)cc3)c2cn1 [Example 21, 3-(4-Fluorobenzyl)-N-hydroxy-3H-imidazo[4,5-c]pyridine-6-carboxamide]
[1]; [4]
  pIC50: 6.29
[2]; [3]
  pEC50: 7.08

## CONC(=O)c1cc2ncn(Cc3ccc(F)cc3)c2cn1 [Example 22, 3-(4-Fluorobenzyl)-N-methoxy-3H-imidazo[4,5-c]pyridine-6-carboxamide]
[1]; [4]
  pIC50: 5.89
[2]; [3]
  pEC50: 6.72

## CN(O)C(=O)c1cc2ncn(Cc3ccc(F)cc3)c2cn1 [Example 23, 3-(4-Fluorobenzyl)-N-hydroxy-N-methyl-3-H-imidazo[4,5-c]pyridine-6-carboxamide]
[1]; [4]
  pIC50: 5.89
[2]; [3]
  pEC50: 6.11

## O=C(NO)c1cc2ncn(Cc3cccc(F)c3F)c2cn1 [Example 24, 3-(2,3-Difluoro-benzyl)-N-hydroxy-3H-imidazo[4,5-c]pyridine-6-carboxamide]
[1]; [4]
  pIC50: 5.98
[2]; [3]
  pEC50: 6.96

## O=C(NO)c1cc2ncn(CCC3CCCCC3)c2cn1 [Example 25, 3-(2-Cyclohexylethyl)-N-hydroxy-3-H-imidazo[4,5-c]pyridine-6-carboxamide]
[1]; [4]
  pIC50: 5.76
[2]; [3]
  pEC50: 6.64

## O=C(NO)c1cc2ccn(CCC3CCCCC3)c2cn1 [Example 26, 1-(2-Cyclohexylethyl)-N-hydroxy-1H-pyrrolo[2,3-c]pyridine-5-carboxamide]
[1]; [4]
  pIC50: 6.11
[2]; [3]
  pEC50: 5.43

## CC(C)N(O)C(=O)c1cc2ccn(Cc3ccc(F)cc3)c2cn1 [Example 27, 1-(4-Fluorobenzyl)-N-hydroxy-N-isopropyl-1H-pyrrolo[2,3-c]pyridine-5-carboxamide]
[1]; [4]
  pIC50: 5.10
[2]; [3]
  pEC50: 5.46

## CCCN(O)C(=O)c1cc2ccn(Cc3ccc(F)cc3)c2cn1 [Example 28, 1-(4-Fluorobenzyl)-N-hydroxy-N-propyl-1H-pyrrolo[2,3-c]pyridine-5-carboxamide]
[1]; [4]
  pIC50: 6.20
[2]; [3]
  pEC50: 6.46

## CC(C)CN(O)C(=O)c1cc2ccn(Cc3ccc(F)cc3)c2cn1 [Example 29, 1-(4-Fluorobenzyl)-N-hydroxy-N-isobutyl-1H-pyrrolo[2,3-c]pyridine-5-carboxamide]
[1]; [4]
  pIC50: 5.77
[2]; [3]
  pEC50: 5.85

## O=C(c1cc2ccn(Cc3ccc(F)cc3)c2cn1)N(O)CCCO [Example 30, 1-(4-Fluorobenzyl)-N-hydroxy-N-(3-hydroxypropyl)-1H-pyrrolo[2,3-c]pyridine-5-carboxamide]
[1]; [4]
  pIC50: 6.09
[2]; [3]
  pEC50: 6.52

## O=C(NO)c1cc2c(cn1)c(C(O)c1ccc(F)cc1)cn2Cc1ccc(F)cc1 (stereo not shown) [Example 31, 1-(4-Fluorobenzyl)-3-[(4-fluorophenyl)(hydroxy)methyl]-N-hydroxy-1H pyrrolo[3,2-c]pyridine-6-carboxamide]
[1]; [4]
  pIC50: 6.73
[2]; [3]
  pEC50: 7.85

## O=C(NO)c1cc2c(cn1)c(Cc1ccc(F)cc1)cn2Cc1ccc(F)cc1 [Example 32, 1,3-Bis(4-fluorobenzyl)-N-hydroxy-1H-pyrrolo[3,2-c]pyridine-6-carboxamide]
[1]; [4]
  pIC50: 6.67
[2]; [3]
  pEC50: 7.60

## CC1C(=O)NCCN1Cc1cn(Cc2ccc(F)cc2)c2cnc(C(=O)N(C)O)cc12 (stereo not shown) [Example 33, 1-(4-Fluorobenzyl)-N-hydroxy-N-methyl-3-[(2-methyl-3-oxopiperazin-1-yl)methyl]-1H-pyrrolo[2,3-c]pyridine-5-carboxamide]
[1]; [4]
  pIC50: 6.33
[2]; [3]
  pEC50: 6.68

## CN(O)C(=O)c1cc2c(CN3[C@H]4CC[C@@H]3C(=O)NC4)cn(Cc3ccc(F)cc3)c2cn1 [Example 34, (4-Fluorobenzyl)-N-hydroxy-N-methyl-3-{[(1R,5S)-2-oxo-3,8-diazabicyclo[3.2.1]oct-8-yl]methyl}-1H-pyrrolo[2,3-c]pyridine-5-carboxamide]
[1]; [4]
  pIC50: 6.31
[2]
  pEC50: 6.77

## CN(O)C(=O)c1cc2cnn(Cc3ccc(F)cc3)c2cn1 [Example 36, 1-(4-Fluorobenzyl)-N-hydroxy-N-methyl-1H-pyrazolo[3,4-c]pyridine-5-carboxamide]
[1]; [4]
  pIC50: 6.09
[2]; [3]
  pEC50: 6.41

## CONC(=O)c1cc2c(CN3CCN(C)CC3)cn(Cc3ccc(F)cc3F)c2cn1 [Example 37, 1-(2,4-Difluorobenzyl)-N-methoxy-3-[(4-methylpiperazin-1-yl)methyl]-1H-pyrrolo[2,3-c]pyridine-5-carboxamide]
[1]; [4]
  pIC50: 6.28
[2]; [3]
  pEC50: 7.34

## CCO/C=C/c1c(C(=O)NO)ncc2c1ccn2Cc1ccc(F)cc1 [Example 38, 4-[(E)-2-Ethoxyvinyl]-1-(4-fluorobenzyl)-N-hydroxy-1H-pyrrolo[2,3-c]pyridine-5-carboxamide]
[1]; [4]
  pIC50: 6.84
[2]; [3]
  pEC50: 7.92

## O=C(NO)c1ncc2c(ccn2Cc2ccc(F)cc2)c1O [Example 42, 1-(4-Fluorobenzyl)-N,4-dihydroxy-1H-pyrrolo[2,3-c]pyridine-5-carboxamide]
[1]; [4]
  pIC50: 7.57
[2]; [3]
  pEC50: 9.00
